Assay results as given in patent US20180228799A1, “Treatment for Neurological and Mental Disorders” (PSYCHOGENICS, INC., priority 2008, published 2018).

Key:
[1] = target: T1, 5-HT1A (Homo sapiens, UniProt P08908); conditions: Schipper et al.; cited from earlier work
T1 sequence (P08908 1-422): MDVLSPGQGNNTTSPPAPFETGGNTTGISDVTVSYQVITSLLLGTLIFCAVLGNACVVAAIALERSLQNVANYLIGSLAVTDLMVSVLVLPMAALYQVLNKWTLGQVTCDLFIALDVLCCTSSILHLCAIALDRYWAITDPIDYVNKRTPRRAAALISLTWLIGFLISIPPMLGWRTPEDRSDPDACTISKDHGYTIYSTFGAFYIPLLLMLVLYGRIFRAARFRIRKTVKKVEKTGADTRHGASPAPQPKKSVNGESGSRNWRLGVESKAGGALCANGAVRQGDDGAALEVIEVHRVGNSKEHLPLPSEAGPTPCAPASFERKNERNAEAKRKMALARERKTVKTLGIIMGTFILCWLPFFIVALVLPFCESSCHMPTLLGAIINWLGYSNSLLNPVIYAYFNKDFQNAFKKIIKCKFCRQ

[2] = tested on: mice; assay: Timing/Peak Procedure operant test (attention, impulsivity); type: in vivo; conditions: 0.1 mg/kg IP, FIG. 1
Text: The Timing/Peak Procedure test is an operant test in which mice are trained to respond to a food reward at a fixed time interval of 30 sec. Mice learn to increase their responding around the 30 sec time period. This test assesses impulsivity, attention and timing perception. A high peak of responding at the 30 sec interval and narrow spread are signatures of the animal's improved attention and time perception.
In brief, mice were placed in a chamber and trained to lever press for food. After training, animals learn to respond after a fixed interval of 30 sec has elapsed as only this fixed interval response produces a reward. With reinforcement delivery the lever is retracted and an inter-trial-interval commences. Once the animal was trained on the reinforced trials, “peak trials” or unreinforced trials are introduced and intermixed with reinforced trials. During these empty trials, no responses were reinforced and the trial lasts for 120 sec (i.e., the lever is extended but reinforcement is not presented). After the 120 sec elapses, the trial terminated, the lever was retracted and the inter-trial-interval started as before. The animals therefore learned that if after a period of 30 sec, no food has been presented there will be no reinforcement delivery until the lever is retracted and the trial starts again.
To perform well on this task, animals need to learn an association between a response (lever pressing) and the delivery of reinforcement (condensed milk), they need to perceive and remember time, they need to act on the remembered time by responding or by inhibiting a response and finally they need to compare the elapsed time during a trial with their memory for the time for reinforcement. A true cognitive enhancer therefore should decrease responding after reinforcement time, without affecting the peak time, i.e., sharpening the curve and reducing the spread in the response curve. A sharpened curve is indicative of heightened attentional processes.

c1cc2c(c(N3CCNCC3)c1)OCCO2 [Eltoprazine, 1-(2,3-dihydro-1,4-benzodioxanyl-5-yl) piperazine]
Binding affinity for 5-HT1A [1]: roughly equipotent affinity
Peak of responding [2]: sharpens the peak of responding
Spread of the response curve [2]: significantly reduces the spread
Peak of responding ([2]; listed as eltoprazine): sharpened the peak of responding
Effect following chronic administration ([2]; chronic administration): no loss of effect
